Data as given in patent US4563451A, “Quinazolino-1,4-benzodiazepin-5,13-diones” (Merck & Co., Inc., priority 1985, dated 1986).
pIC50: −log10 of the molar value. Where a SMILES comes first, the peptide text is derived from it. [ ]: non-standard residue; d: D form. The star is where a group is joined. sY = N[C@@H](Cc1ccc(OS(=O)(=O)O)cc1)C(=O)O; Cbz = O=C(OCc1ccccc1)*; Boc = CC(C)(C)OC(=O)*

System: CCK-receptor
Assay: not given
Details: background; cited from earlier work
In the case of `CSCC[C@H](NC(=O)OC(C)(C)C)C(=O)N[C@@H](CC(=O)O)C(=O)N[C@@H](Cc1ccccc1)C(N)=O` [Boc--Met--Asp--Phe--NH2] (Boc-Met-Asp-Phe-NH2), the “CCK-antagonism (in words)” value is listed as “can function as CCK-antagonists”.
For `CSCC[C@H](NC(=O)[C@H](Cc1ccc(OS(=O)(=O)O)cc1)NC(=O)OCc1ccccc1)C(=O)NCC(=O)N[C@@H](Cc1c[nH]c2ccccc12)C(=O)N[C@@H](CCSC)C(=O)N[C@@H](CC(=O)O)C(N)=O` [Cbz--Tyr(SO3 H)--Met--Gly--Trp--Met--Asp--NH2] (Cbz-[sY]MGWMD-NH2), the “CCK-antagonism (in words)” value is listed as “can function as CCK-antagonists”.
For `CSCC[C@H](N)C(=O)N[C@@H](CC(=O)O)C(=O)N[C@@H](Cc1ccccc1)C(N)=O` [Met--Asp--Phe--NH2] (H-Met-Asp-Phe-NH2), the “CCK-antagonism (in words)” value is given as “can function as CCK-antagonists”.
For `CCCC(=O)Nc1nc2c(ncn2[C@@H]2O[C@@H]3COP(=O)(O)O[C@H]3[C@H]2OC(=O)CCC)c(=O)[nH]1` [dibutyryl cyclic GMP], the “CCK-antagonism (in words)” value is listed as “the most potent”.
For `CC(C)C[C@@H]1N[C@H]2N(C1=O)c1ccccc1[C@@]2(O)C[C@@H]1NC(=O)c2ccccc2-n2c1nc1ccccc1c2=O` [formula (I), 7β-((2,3,9,9Aα-tetrahydro-9α-hydroxy-2-(2-methylpropyl)-3-oxo-1H-imidazo-(1,2-A)-indol-9-yl)-methyl)quinazolino(3,2-A)(1,4)benzodiazepin-5,13-(6H,7H)dione], the “CCK-antagonism (in words)” value is listed as “has been shown to be a CCK-antagonist”.

Molecular target: T1, CCK receptor (pancreas) (Rattus norvegicus, UniProt P30551)
T1 construct: The whole pancreas of a male Sprague-Dawley rat; from tissue; host or cells: whole pancreas of male Sprague-Dawley rat, washed membrane suspension
T1 sequence (P30551 1-444): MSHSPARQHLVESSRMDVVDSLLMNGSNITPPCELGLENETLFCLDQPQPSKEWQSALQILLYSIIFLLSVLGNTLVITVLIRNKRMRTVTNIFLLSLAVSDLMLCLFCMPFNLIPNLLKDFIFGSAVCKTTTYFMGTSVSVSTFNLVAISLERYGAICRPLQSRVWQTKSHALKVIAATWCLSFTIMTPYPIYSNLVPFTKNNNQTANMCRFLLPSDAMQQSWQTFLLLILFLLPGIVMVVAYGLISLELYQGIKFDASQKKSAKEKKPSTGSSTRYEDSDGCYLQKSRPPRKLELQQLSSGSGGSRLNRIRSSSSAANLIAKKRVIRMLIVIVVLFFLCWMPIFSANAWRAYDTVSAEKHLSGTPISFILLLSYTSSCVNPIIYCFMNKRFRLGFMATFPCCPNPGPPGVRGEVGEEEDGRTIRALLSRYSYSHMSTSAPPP
Assay: CCK receptor binding (pancreas) method; I-CCK-8 pancreas assay (CCK-antagonism)
Design: species or system male Sprague-Dawley rat
Details: 125I-CCK binding, rat pancreas membranes, 37° C., 30 minutes; read-out: Anti-CCK Activity IC50
Text: Screening of the novel compounds according to the present invention to determine biological activity and obtain an IC50 value for them, in order to identify significant CCK-antagonism, may be accomplished using an ^125 I-CCK receptor binding assay and in vitro isolated tissue preparations. These tests involve the following:
CCK receptor binding (pancreas) method
CCK-33 is radiolabeled with ^125 I-Bolton Hunter reagent (2000 Ci/mmole), as described by Sankara et al. (J. Biol. Chem., 254, 9349-9351, 1979). Receptor binding is performed according to Innis and Snyder (Proc. Natl. Acad. Sci., 77, 6917-6921, 1980), with the minor modification of adding the additional protease inhibitors, phenyl-methane sulfonyl fluoride and o-phenanthroline, which have no effect on the ^125 I-CCK receptor binding assay.
The whole pancreas of a male Sprague-Dawley rat (200-350 g), which has been sacrificed by decapitation, is dissected free of fat tissue and homogenized in 20 volumes of ice-cold 50 mM Tris HCl (pH 7.7 at 25° C.) with a Brinkman Polytron PT-10. The homogenates are centrifuged at 48,000 g for 10 minutes, then the resulting pellets are resuspended in Tris Buffer, centrifuged as above, and resuspended in 200 volumes of binding assay buffer (50 mM Tris HCl, pH 7.7 at 25° C., 5 mM dithiothreitol, 0.1 mM bacitracin, 1.2 mM phenylmethane sulfonyl fluoride and 0.5 mM o-phenanthroline).
For the binding assay, 25 μl of buffer (for total binding), or unlabeled CCK-8 sulfate sufficient to give a final concentration of 1 μM of CCK-8 (for nonspecific binding), or the compounds of the formula of the compounds according to the instant invention (for determination of antagonism to ^125 I-CCK binding) and 25 μl of ^125 I-CCK-33 (30,000-40,000 cpm), are added to 450 μl of the membrane suspensions in microfuge tubes. All assays are run in duplicate or triplicate, and the reaction mixtures are incubated at 37° C. for 30 minutes and centrifuged in a Beckman Microfuge (4 minutes) immediately after adding 1 ml of ice-cold incubation buffer. The supernatant is aspirated and discarded, and the pellets are counted with a Beckman Gamma 5000.
Activity Testing with I-CCK-8 Pancreas Assay
The compounds of Examples 1-11 were tested as CCK-antagonists (pancreas assay) with the following results: […]
Molecule `CC(C)C[C@@H]1N[C@H]2N(C1=O)c1ccccc1[C@@]2(O)C[C@@H]1NC(=O)c2ccccc2N2C(=O)c3ccccc3NC12` (stereo partly drawn) [Example 1, 7,7a-dihydro-7-[(2,3,9,9Aα-tetrahydro-9α-hydroxy-2-(2-methylpropyl)-3-oxo-1H-imidazo(1,2-a)indol-9-yl)methyl]quinazolino(3,2-a)(1,4)benzazepin-5,13-(6H,7H)dione hydrate] has a pIC50 of 6.68.
In the case of `CC(=O)N1[C@H]2N(C(=O)[C@@H]1CC(C)C)c1ccccc1[C@@]2(O)C[C@@H]1NC(=O)c2ccccc2-n2c1nc1ccccc1c2=O` [Example 2, 7-[(1-acetyl-2,3,9,9Aα-tetrahydro-9α-hydroxy-2-(2-methylpropyl)-3-oxo-1H-imidazo(1,2-A)indol-9-yl)methyl]quinazolino(3,2-A)-1,4-benzodiazepin-5,13-(6H,7H)-dione], the pIC50 was 4.66.
`CCN1[C@H]2N(C(=O)[C@@H]1CC(C)C)c1ccccc1[C@@]2(O)C[C@@H]1NC(=O)c2ccccc2N2C(=O)c3ccccc3NC12` (stereo partly drawn) [Example 3, 7-[(1-ethyl-2,3,9,9Aα-tetrahydro-9α-hydroxy-2-(2-methylpropyl)-3-oxo-1H-imidazo(1,2-A)indol-9-yl)methyl]-6,7,7A,8-tetrahydro-5H,13H-quinazolino-(3,2-A)-1,4-benzazepin-5H,13-dione hemihydrate] gave a pIC50 of 6.46.
With `CC(C)CC1C(=O)N2c3ccccc3C(O)(CC3NC(=O)c4ccccc4-n4c3nc3ccccc3c4=O)C2N1C(=O)OCc1ccccc1` (stereo not drawn) [Example 4] the pIC50 was 5.30.
With `CC(C)C[C@H]1C(=O)N2c3ccccc3[C@@](O)(C[C@@H]3NC(=O)c4ccccc4N4C(=O)c5ccccc5NC34)[C@H]2N1O` (stereo partly drawn) [Example 5, 7,7α-dihydro-7-[(2,3,9,9Aα-tetrahydro-1,9α-dihydroxy-2-(2-methylpropyl)-3-oxo-1H-imidazo-(1,2-A)-indol-9-yl)methyl]quinazolino(3,2-A)-1,4-benzodiazepin-5,13(6H,7H)-dione hydrate] the pIC50 was 6.17.
Work on `CC(C)CC1C(=O)N2c3ccccc3C(O)(CC3NC(=O)c4ccccc4-n4c3nc3ccccc3c4=O)C2N1CCCc1ccccc1` (stereo not drawn) [Example 6, 7-[1-(3-phenylpropyl)-2,3,9,9Aα-tetrahydro-9α-hydroxy-2-(2-methylpropyl)-3-oxo-1H-imidazo(1,2-A)indol-9-yl)methyl]-6,7,7A,8-tetrahydro-5H,13H-quinazolino(3,2-A)-1,4-benzazepin-5H,13-dione sesquihydrate] yielded a pIC50 of 6.72.
Molecule `CC(C)C[C@H]1C(=O)N2c3ccccc3[C@@](O)(C[C@@H]3NC(=O)c4ccccc4-n4c3nc3ccccc3c4=O)[C@H]2N1C(=O)[C@H](Cc1ccc(OCc2ccccc2)cc1)NC(=O)OC(C)(C)C` [Example 7, 7-{{1-[N-((1,1-dimethylethoxy)carbonyl)-o-phenylmethyltryosyl]-2,3,9,9Aα-tetrahydro-9α-hydroxy-2-(2-methylpropyl)-3-oxo-1H-imidazo(1,2-A)indol-9-yl}methyl}quinazolino(3,2-A)-1,4-benzodiazepin-5,13-(6H,7H)-dione] has a pIC50 of 4.00.
`CC(C)C[C@H]1C(=O)N2c3ccccc3[C@@](O)(C[C@@H]3NC(=O)c4ccccc4-n4c3nc3ccccc3c4=O)[C@H]2N1C(=O)[C@H](Cc1ccc(O)cc1)NC(=O)OC(C)(C)C` [Example 8, 7-{{1-[2-((1,1-dimethylethoxy)carbonyl)amino-3-(4-hydroxyphenyl)propanoyl]-2,3,9,9Aα-tetrahydro-9α-hydroxy-2-(2-methylpropyl)-3-oxo-1H-imidazo(1,2-A)indol-9-yl}methyl}quinazolino(3,2-A)-1,4-benzodiazepin-5,13-(6H,7H)-dione hemihydrate] showed a pIC50 of 4.34.
`CC(C)C[C@H]1C(=O)N2c3ccccc3[C@@](O)(C[C@@H]3NC(=O)c4ccccc4-n4c3nc3ccccc3c4=O)[C@H]2N1C(=O)C(CCCCNC(=O)OCc1ccccc1)NC(=O)OC(C)(C)C` (stereo partly drawn) [Example 9, 7-{{1-[2-((1,1-dimethylethoxy)carbonyl)amino-6-(phenylmethyloxycarbonyl)aminohexanoyl]-2,3,9,9Aα-tetrahydro-9α-hydroxy-2-(2-methylpropyl)-3-oxo-1H-imidazo(1,2-A)indol-9-yl}methyl}quinazolino(3,2-A)-1,4-benzodiazepin-5,13-(6H,7H)-dione hydrate] gave a pIC50 of 4.00.
Work on `CC(C)C[C@H]1C(=O)N2c3ccccc3[C@@](O)(C[C@@H]3NC(=O)c4ccccc4-n4c3nc3ccccc3c4=O)[C@H]2N1C(=O)C(CCCNC(=O)OCc1ccccc1)NC(=O)OC(C)(C)C` (stereo partly drawn) [Example 10, 7-{{1-[2-((1,1-dimethylethoxy)carbonyl)amino-5-(phenylmethyloxycarbonyl)aminopentanoyl]-2,3,9,9Aα-tetrahydro-9α-hydroxy-2-(2-methylpropyl)-3-oxo-1H-imidazo(1,2-A)indol-9-yl}methyl}quinazolino(3,2-A)-1,4-benzodiazepin-5,13-(6H,7H)-dione] yielded a pIC50 of 5.37.
Work on `CC(C)C[C@H]1C(=O)N2c3ccccc3[C@@](O)(C[C@@H]3NC(=O)c4ccccc4N4C(=O)c5ccccc5NC34)[C@H]2N1C(=O)C(CCCNC(=O)OCc1ccccc1)NC(=O)OC(C)(C)C` (stereo partly drawn) [Example 11, 7-{{1-[2-((1,1-dimethylethoxy)carbonyl)amino-5-(phenylmethyloxycarbonyl)aminopentanoyl]-2,3,9,9Aα-tetrahydro-9α-hydroxy-2-(2-methylpropyl)-3-oxo-1H-imidazo(1,2-A)indol-9-yl}methyl}-6,7,7A,8-tetrahydro-5H,13-quinazolino(3,2-A)-1,4-benzodiazepin-5H,13-dione hydrate] yielded a pIC50 of 5.89.

Same assay, conditions: added protease inhibitor in the binding assay
For `c1cnc2c(c1)ccc1cccnc12` [o-phenanthroline, reference compound], the “effect on the 125I-CCK receptor binding assay” value was “no effect”.
In the case of `O=S(=O)(F)Cc1ccccc1` [phenyl-methane sulfonyl fluoride, reference compound], the “effect on the 125I-CCK receptor binding assay” value was “no effect”.
